Reference: patent US9247759B2, “Identification of human T2R receptors that respond to bitter compounds that elicit the bitter taste in compositions, and the use thereof in assays to identify compounds that inhibit (block) bitter taste in compositions and use thereof” (SENOMYX, INC., priority 2007, dated 2016)
Like-named read-outs stand apart in the source and are kept apart here.

Target: hT2R8 (Homo sapiens (Human), UniProt Q9NYW2)
Experiment: hT2R8 antagonist high-throughput FLIPR assay, stable cell line with G16g44, agonist andrographolide
Type: cell-based
In short: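 HEK293 cells stably co-expressing hT2R8 and chimeric G16g44, read on FLIPR. Test compounds added together with andrographolide (200 μM), which drives the receptor to 70–80% of maximal activity; antagonism seen as reduced agonist response.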

[1] = read-out: IC50 on hT2R8 bitter receptor
[2] = table after Example 10-97, read-out: hT2R8 IC50
[3] = table after Example 12-37, read-out: hT2R8 IC50

Chain of hT2R8 (Q9NYW2 whole entry): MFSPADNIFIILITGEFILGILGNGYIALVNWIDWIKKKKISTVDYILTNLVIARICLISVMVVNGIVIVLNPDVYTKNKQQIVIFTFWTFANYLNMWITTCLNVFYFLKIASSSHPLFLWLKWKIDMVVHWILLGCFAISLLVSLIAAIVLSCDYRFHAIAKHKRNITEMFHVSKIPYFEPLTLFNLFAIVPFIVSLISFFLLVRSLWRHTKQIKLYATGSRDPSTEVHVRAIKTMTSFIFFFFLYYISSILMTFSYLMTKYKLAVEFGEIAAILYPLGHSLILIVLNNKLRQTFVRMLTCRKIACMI

SMILES | IC50 (Table A, read-out: hT2R8 IC50) [nM] | IC50 [1] [nM] | further results
COc1ccc(C(=O)Nc2cnn(Cc3c(C)noc3C)c2)cc1OC [Example 4-21, N-(1-((3,5-dimethylisoxazol-4-yl)methyl)-1H-pyrazol-4-yl)-3,4-dimethoxybenzamide] | 560 | – | –
Cc1noc(C)c1Cn1cc(NC(=O)C(CO)c2ccccc2)cn1 (stereo not drawn) [Example 4-40, N-(1-((3,5-dimethylisoxazol-4-yl)methyl)-1H-pyrazol-4-yl)-3-hydroxy-2-phenylpropanamide] | 960 | – | –
Cc1cc(C(=O)Nc2cnn(Cc3c(C)noc3C)c2)c(C)o1 [Example 4-53, N-(1-((3,5-dimethylisoxazol-4-yl)methyl)-1H-pyrazol-4-yl)-2,5-dimethylfuran-3-carboxamide] | 3030 | – | –
COc1ccc(CC(=O)Nc2cnn(Cc3c(C)noc3C)c2)cc1 [Example 4-33, N-(1-((3,5-dimethylisoxazol-4-yl)methyl)-1H-pyrazol-4-yl)-2-(4-methoxyphenyl)acetamide] | 990 | – | –
Cc1noc(C)c1Cn1cc(NC(=O)c2cccc(Cl)c2)cn1 [Example 4-80, 3-chloro-N-(1-((3,5-dimethylisoxazol-4-yl)methyl)-1H-pyrazol-4-yl)benzamide] | 900 | – | –
Cc1noc(C)c1Cn1cc(N2C(=O)N(Cc3cccc(OCC(=O)O)c3)C(C)(C)C2=O)cn1 [Example 12-90, 2-(3-((3-(1-((3,5-dimethylisoxazol-4-yl)methyl)-1H-pyrazol-4-yl)-5,5-dimethyl-2,4-dioxoimidazolidin-1-yl)methyl)phenoxy)acetic acid] | – | – | IC50 [3]: 2850 nM
Cc1noc(C)c1Cn1cc(NC(=O)c2ccc3nccnc3c2)cn1 [Example 4-82, N-(1-((3,5-dimethylisoxazol-4-yl)methyl)-1H-pyrazol-4-yl)quinoxaline-6-carboxamide] | 800 | – | –
Cc1noc(C)c1Cn1cc(N2C(=O)N(Cc3ccc(C(=O)O)cc3)C(C)(C)C2=O)cn1 [Example 12-89, 4-((3-(1-((3,5-dimethylisoxazol-4-yl)methyl)-1H-pyrazol-4-yl)-5,5-dimethyl-2,4-dioxoimidazolidin-1-yl)methyl)benzoic acid] | – | – | IC50 [3]: 2310 nM
Cc1noc(C)c1Cn1cc(N2C(=O)N(Cc3cccc(O)n3)C(C)(C)C2=O)cn1 [Example 12-72, 3-(1-((3,5-dimethylisoxazol-4-yl)methyl)-1H-pyrazol-4-yl)-1-((6-hydroxypyridin-2-yl)methyl)-5,5-dimethylimidazolidine-2,4-dione] | – | – | IC50 [3]: 440 nM
Cc1noc(C)c1Cn1cc(N2C(=O)N(CCc3ccc(F)cc3)C(C)(C)C2=O)cn1 [Example 12-69, 3-(1-((3,5-dimethylisoxazol-4-yl)methyl)-1H-pyrazol-4-yl)-1-(4-fluorophenethyl)-5,5-dimethylimidazolidine-2,4-dione] | – | – | IC50 [3]: 330 nM
COc1ccc(CC(=O)Nc2cnn(Cc3c(C)noc3C)c2)cc1O [Example 4-70, N-(1-((3,5-dimethylisoxazol-4-yl)methyl)-1H-pyrazol-4-yl)-2-(3-hydroxy-4-methoxyphenyl)acetamide] | 3100 | – | –
COc1ccc(OC)c(CN2C(=O)N(c3cnn(Cc4c(C)noc4C)c3)C(=O)C2(C)C)c1 [Example 12-54, 1-(2,5-dimethoxybenzyl)-3-(1-((3,5-dimethylisoxazol-4-yl)methyl)-1H-pyrazol-4-yl)-5,5-dimethylimidazolidine-2,4-dione] | – | – | IC50 [3]: 200 nM
Cc1noc(C)c1Cn1cc(NC(=O)c2ccccc2)cn1 [Example 4-24, N-(1-((3,5-dimethylisoxazol-4-yl)methyl)-1H-pyrazol-4-yl)benzamide] | 2620 | – | –
Cc1ccc(C(=O)Nc2cnn(Cc3c(C)noc3C)c2)o1 [Example 4-54, N-(1-((3,5-dimethylisoxazol-4-yl)methyl)-1H-pyrazol-4-yl)-5-methylfuran-2-carboxamide] | 3190 | – | –
Cc1noc(C)c1Cn1cc(N2C(=O)N(Cc3cccc(OCCO)c3)C(C)(C)C2=O)cn1 [Example 12-63, 3-(1-((3,5-dimethylisoxazol-4-yl)methyl)-1H-pyrazol-4-yl)-1-(3-(2-hydroxyethoxy)benzyl)-5,5-dimethylimidazolidine-2,4-dione] | – | – | IC50 [3]: 280 nM
Cc1noc(C)c1Cn1cc(N2C(=O)N(Cc3ccc4c(c3)OCCO4)C(C)(C)C2=O)cn1 [Example 12-62, 1-((2,3-dihydrobenzo[b][1,4]dioxin-6-yl)methyl)-3-(1-((3,5-dimethylisoxazol-4-yl)methyl)-1H-pyrazol-4-yl)-5,5-dimethylimidazolidine-2,4-dione] | – | – | IC50 [3]: 270 nM
Cc1noc(C)c1Cn1cc(NC(=O)C(c2ccccc2)c2ccccc2)cn1 [Example 4-44, N-(1-((3,5-dimethylisoxazol-4-yl)methyl)-1H-pyrazol-4-yl)-2,2-diphenylacetamide] | 5190 | – | –
Cc1noc(C)c1Cn1cc(N2C(=O)N(Cc3ccc(C#N)cc3)C(C)(C)C2=O)cn1 [Example 12-79, 4-((3-(1-((3,5-dimethylisoxazol-4-yl)methyl)-1H-pyrazol-4-yl)-5,5-dimethyl-2,4-dioxoimidazolidin-1-yl)methyl)benzonitrile] | – | – | IC50 [3]: 50 nM
Cc1noc(C)c1Cn1cc(NC(=O)CC2CCCCC2)cn1 [Example 4-14, 2-cyclohexyl-N-(1-((3,5-dimethylisoxazol-4-yl)methyl)-1H-pyrazol-4-yl)acetamide] | – | 730 | –
COc1cc(C(=O)Nc2cnn(Cc3c(C)noc3C)c2)cc(O)c1O [Example 4-73, N-(1-((3,5-dimethylisoxazol-4-yl)methyl)-1H-pyrazol-4-yl)-3,4-dihydroxy-5-methoxybenzamide] | 2200 | 2200 | –
CNc1cnn(Cc2c(C)noc2C)c1 [Example 4-63, 1-((3,5-dimethylisoxazol-4-yl)methyl)-N-methyl-1H-pyrazol-4-amine] | 8760 | – | –
Cc1noc(C)c1Cn1cc(N2C(=O)N(Cc3cccc(C#N)c3)C(C)(C)C2=O)cn1 [Example 12-42, 3-((3-(1-((3,5-dimethylisoxazol-4-yl)methyl)-1H-pyrazol-4-yl)-5,5-dimethyl-2,4-dioxoimidazolidin-1-yl)methyl)benzonitrile] | – | – | IC50 [3]: 90 nM

Second part, led by results:

IC50 (Table A, read-out: hT2R8 IC50) [nM] | IC50 [1] [nM] | SMILES | further results
– | 900 | Cc1noc(C)c1Cn1cc(N2C(=O)CN(Cc3cccc(CNC(=O)OC(C)(C)C)c3)C2=O)cn1 [Example 10-96, tert-butyl 3-((3-(1-((3,5-dimethylisoxazol-4-yl)methyl)-1H-pyrazol-4-yl)-2,4-dioxoimidazolidin-1-yl)methyl)benzylcarbamate] | IC50 [2]: 891 nM
– | 340 | Cc1noc(C)c1Cn1cc(N2C(=O)N/C(=C\c3ccccc3)C2=O)cn1 [Example 10-63, (Z)-5-benzylidene-3-(1-((3,5-dimethylisoxazol-4-yl)methyl)-1H-pyrazol-4-yl)imidazolidine-2,4-dione] | –
– | 60 | COCCn1c(=O)n(-c2cnn(Cc3c(C)noc3C)c2)c(=O)n1Cc1ccccc1 [Example 10-92, 1-benzyl-4-(1-((3,5-dimethylisoxazol-4-yl)methyl)-1H-pyrazol-4-yl)-2-(2-methoxyethyl)-1,2,4-triazolidine-3,5-dione] | IC50 [2]: 57 nM
– | 170 | Cc1noc(C)c1Cn1cc(N2C(=O)NC(CCCc3ccccc3)C2=O)cn1 (stereo not drawn) [Example 10-46, 3-(1-((3,5-dimethylisoxazol-4-yl)methyl)-1H-pyrazol-4-yl)-5-(3-phenylpropyl)imidazolidine-2,4-dione] | IC50 [2]: 484 nM
– | 20 | COCn1c(=O)n(-c2cnn(Cc3c(C)noc3C)c2)c(=O)n1Cc1ccccc1 [Example 10-89, 1-benzyl-4-(1-((3,5-dimethylisoxazol-4-yl)methyl)-1H-pyrazol-4-yl)-2-(methoxymethyl)-1,2,4-triazolidine-3,5-dione] | IC50 [2]: 24 nM
– | 220 | Cc1noc(C)c1Cn1cc(N2C(=O)NC(CCc3ccccc3)C2=O)cn1 (stereo not drawn) [Example 10-45, 3-(1-((3,5-dimethylisoxazol-4-yl)methyl)-1H-pyrazol-4-yl)-5-phenethylimidazolidine-2,4-dione] | IC50 [2]: 793 nM
– | 30 | COCc1cccc(CN2C(=O)N(c3cnn(Cc4c(C)noc4C)c3)C(=O)C23CC3)c1 [Example 12-14, 6-(1-((3,5-dimethylisoxazol-4-yl)methyl)-1H-pyrazol-4-yl)-4-(3-(methoxymethyl)benzyl)-4,6-diazaspiro[2.4]heptane-5,7-dione] | –
– | 1000 | COc1ccnc(CN2CC(=O)N(c3cnn(Cc4c(C)noc4C)c3)C2=O)c1OC [Example 10-72, 1-((3,4-dimethoxypyridin-2-yl)methyl)-3-(1-((3,5-dimethylisoxazol-4-yl)methyl)-1H-pyrazol-4-yl)imidazolidine-2,4-dione] | IC50 [2]: 999 nM
– | 20 | Cc1noc(C)c1Cn1cc(N2C(=O)[C@@H](C)N(Cc3cccc(O)c3)C2=O)cn1 [Example 12-7, (R)-3-(1-((3,5-dimethylisoxazol-4-yl)methyl)-1H-pyrazol-4-yl)-1-(3-hydroxybenzyl)-5-methylimidazolidine-2,4-dione] | –
– | 5840 | Cc1noc(C)c1Cn1cc(N2CNCN(Cc3ccccc3)C2=O)cn1 [Example 9-6, 1-benzyl-3-(1-((3,5-dimethylisoxazol-4-yl)methyl)-1H-pyrazol-4-yl)-1,3,5-triazinan-2-one] | IC50 [2]: 6030 nM
– | 31 | Cc1noc(C)c1Cn1cc(-n2c(=O)n(C)n(CCOc3ccccc3)c2=O)cn1 [Example 10-67, 4-(1-((3,5-dimethylisoxazol-4-yl)methyl)-1H-pyrazol-4-yl)-1-methyl-2-(2-phenoxyethyl)-1,2,4-triazolidine-3,5-dione] | –
– | 410 | CCCCn1c(=O)n(-c2cnn(Cc3c(C)noc3C)c2)c(=O)n1Cc1ccccc1 [Example 10-95] | IC50 [2]: 409 nM
– | 160 | COc1cccc(CCN2CC(=O)N(c3cnn(Cc4c(C)noc4C)c3)C2=O)c1 [Example 10-85, 3-(1-((3,5-dimethylisoxazol-4-yl)methyl)-1H-pyrazol-4-yl)-1-(3-methoxyphenethyl)imidazolidine-2,4-dione] | IC50 [2]: 158 nM
